conditions: pampa; 60.0 min; 50.0 µM

Question: For `Cn1c2cc(S(C)=O)sc2c2cnn(Cc3ccccc3F)c(=O)c21` (stereo not given), which Papp is on record?
Answer: The Papp was 49 ×10⁻⁶ cm/s.

Question: Which Papp does the source give for `CN1CCN(CCCN2c3ccccc3Sc3ccc(C(F)(F)F)cc32)CC1` here?
Answer: Its Papp is 53 ×10⁻⁶ cm/s.

Question: Which Papp does the source give for `CC[C@@H]1C[C@]1(NC(=O)[C@@H]1C[C@@H]2CN1C(=O)[C@H](C(C)(C)C)NC(=O)OCC(C)(C)CCCCc1cccc3c1CN(C3)C(=O)O2)C(=O)NS(=O)(=O)C1CC1` here?
Answer: The Papp was 10 ×10⁻⁶ cm/s.

Question: Which Papp does the source give for `CC1=C2C[C@H]3[C@@H](CC[C@@H]4C[C@H](NS(C)(=O)=O)CC[C@@]43C)[C@@H]2CC[C@@]2(C1)O[C@@H]1C[C@H](C)CN[C@H]1[C@H]2C` here?
Answer: Its Papp is 132 ×10⁻⁶ cm/s.

Question: For `Cc1onc(-c2c(F)cccc2Cl)c1C(=O)N[C@@H]1C(=O)N2[C@@H]1SC(C)(C)[C@@H]2C(=O)O`, which Papp is on record?
Answer: Its Papp is 28 ×10⁻⁶ cm/s.

Question: For `Cc1cccc(-n2nnnc2S(C)(=O)=O)c1`, which Papp is on record?
Answer: The Papp was 28.3 ×10⁻⁶ cm/s.

Question: With `Cn1nnnc1Sc1ncnc2scc(-c3cccc4ccccc34)c12` as the compound, how does the Papp read?
Answer: The Papp was 265 ×10⁻⁶ cm/s.

Question: Which Papp does the source give for `Cn1nnnc1Sc1ncnc2scc(-c3cccc(C#N)c3)c12` here?
Answer: The Papp was 76 ×10⁻⁶ cm/s.

Question: For `N#Cc1ccc(C(=O)N2CCC3(CC2)N=C(N)c2c(F)ccc(F)c2N3)cn1`, which Papp is on record?
Answer: Its Papp is 4 ×10⁻⁶ cm/s.

Question: Which Papp does the source give for `O=C(O)[C@@H]1C[C@H]2C[C@@H](CCc3nn[nH]n3)CC[C@H]2CN1` here?
Answer: Its Papp is 3 ×10⁻⁶ cm/s.

Question: Which Papp does the source give for `CNC1CCC(N(Cc2ccc(OC)c(-c3ccc(C#N)cc3)c2)C(=O)c2sc3ccccc3c2Cl)CC1` (stereo not given) here?
Answer: Its Papp is 234 ×10⁻⁶ cm/s.

Question: With `O=C(N[C@@H](CO)[C@H](O)c1ccc([N+](=O)[O-])cc1)C(Cl)Cl` as the compound, how does the Papp read?
Answer: Its Papp is 3 ×10⁻⁶ cm/s.

Question: With `Cn1cnc2c(F)c(Nc3ccc(Br)cc3F)c(C(=O)NOCCO)cc21` as the compound, how does the Papp read?
Answer: The Papp was 19.3 ×10⁻⁶ cm/s.

Question: With `Oc1ccc(/C=C/c2cc(O)cc(O)c2)cc1` as the compound, how does the Papp read?
Answer: The Papp was 5 ×10⁻⁶ cm/s.

Question: With `N#Cc1cccc(NC(=O)c2sc3nc4c(cc3c2N)N2CCC4CC2)c1` as the compound, how does the Papp read?
Answer: The Papp was 142 ×10⁻⁶ cm/s.

Question: Which Papp does the source give for `Cn1nnnc1SCC1=C(C(=O)O)N2C(=O)[C@H](NC(=O)C(O)c3ccccc3)C2SC1` (stereo not given in full) here?
Answer: The Papp was < 1 ×10⁻⁶ cm/s.

Question: Which Papp does the source give for `N=c1c2c(-c3ccccc3)c(-c3ccccc3)n(Cc3ccccc3)c2ncn1CCO` here?
Answer: Its Papp is 223 ×10⁻⁶ cm/s.

Question: With `CC(NC(CCc1ccccc1)C(=O)O)C(=O)N1C(=O)N(C)CC1C(=O)O` (stereo not given) as the compound, how does the Papp read?
Answer: Its Papp is < 1 ×10⁻⁶ cm/s.

Question: For `COc1ccc(CCNC(=O)CCc2c(C)c3cc4c(C)coc4cc3oc2=O)cc1`, which Papp is on record?
Answer: The Papp was 279 ×10⁻⁶ cm/s.

Question: Which Papp does the source give for `Cc1[nH]c2ccccc2c1CCNCc1ccc(C=CC(=O)NO)cc1` here?
Answer: The Papp was < 1 ×10⁻⁶ cm/s.

Question: Which Papp does the source give for `CC=CC1=C(C(=O)O)N2C(=O)[C@@H](NC(=O)[C@H](N)c3ccc(O)cc3)[C@H]2SC1` here?
Answer: The Papp was 282 ×10⁻⁶ cm/s.

Question: With `C[C@H]([C@@H](O)c1ccccc1)n1cnc2c(c(-c3ccccc3)c(-c3ccccc3)n2Cc2ccccc2)c1=N` as the compound, how does the Papp read?
Answer: Its Papp is 3 ×10⁻⁶ cm/s.

Question: With `Cc1ccc(-c2c(C(=O)CCl)n(CCCO)c3ncnc(N)c23)cc1` as the compound, how does the Papp read?
Answer: The Papp was 76 ×10⁻⁶ cm/s.

Question: Which Papp does the source give for `O=C(O)c1cc2ccccc2c(Cc2c(O)c(C(=O)O)cc3ccccc23)c1O` here?
Answer: Its Papp is 3 ×10⁻⁶ cm/s.

Question: For `O=C(NCC1CCOCC1)c1cnc(Nc2ccc(Cl)cc2Cl)nc1C(F)(F)F`, which Papp is on record?
Answer: Its Papp is < 1 ×10⁻⁶ cm/s.

Question: For `N=c1c2c(-c3ccccc3)c(-c3ccccc3)n(Cc3ccccc3)c2ncn1CCN`, which Papp is on record?
Answer: Its Papp is 78 ×10⁻⁶ cm/s.

Question: For `Cc1ncc(COP(=O)(O)O)c(C=O)c1O`, which Papp is on record?
Answer: The Papp was < 1 ×10⁻⁶ cm/s.

Question: For `CC(C)(C)c1ccc2c(c1)CC[C@H]2NC(=O)Nc1cccc2[nH]ncc12`, which Papp is on record?
Answer: Its Papp is < 1 ×10⁻⁶ cm/s.

Question: For `O=C(O)C1=C(CSc2nnnn2CS(=O)(=O)O)CS[C@@H]2[C@H](NC(=O)[C@H](O)c3ccccc3)C(=O)N12`, which Papp is on record?
Answer: Its Papp is 12 ×10⁻⁶ cm/s.

Question: With `Cn1nnnc1Sc1ncnc2scc(-c3ccc[nH]3)c12` as the compound, how does the Papp read?
Answer: The Papp was 126 ×10⁻⁶ cm/s.

Question: With `C=Cc1c(C)c2cc3nc(c(CC(=O)N[C@@H](CC(=O)O)C(=O)O)c4nc(cc5[nH]c(cc1[nH]2)c(C)c5CC)C(C)=C4C(=O)O)[C@@H](CCC(=O)O)[C@@H]3C` as the compound, how does the Papp read?
Answer: Its Papp is < 1 ×10⁻⁶ cm/s.

Question: With `N=c1c2c(-c3ccccc3)cn(Cc3ccccc3)c2ncn1[C@@H]1CCCC[C@H]1N` as the compound, how does the Papp read?
Answer: The Papp was 101 ×10⁻⁶ cm/s.

Question: For `Nc1c(C(=O)Nc2ccc(Cl)c(C(F)(F)F)c2)sc2nc3c(cc12)N1CCC3CC1`, which Papp is on record?
Answer: Its Papp is 213 ×10⁻⁶ cm/s.

Question: Which Papp does the source give for `CCO/N=C(\C(=O)N[C@@H]1C(=O)N2C(C(=O)O)=C(Sc3nc(-c4cc[n+](C)cc4)cs3)CS[C@H]12)c1nsc(NP(=O)(O)O)n1` here?
Answer: The Papp was 2 ×10⁻⁶ cm/s.

Question: With `Cc1cc(CNC(=O)c2ccc3c(c2)n(CC2CC2)c(=O)n3C2CCCCC2)on1` as the compound, how does the Papp read?
Answer: The Papp was > 300 ×10⁻⁶ cm/s.

Question: With `Cn1nnnc1Sc1ncnc2scc(-c3ccc([N+](=O)[O-])cc3)c12` as the compound, how does the Papp read?
Answer: The Papp was 93 ×10⁻⁶ cm/s.

Question: Which Papp does the source give for `O=c1c2c(c1=O)N(CCP(=O)(O)O)CCCN2` here?
Answer: The Papp was < 1 ×10⁻⁶ cm/s.

Question: Which Papp does the source give for `CCCC(C)(COC(N)=O)COC(=O)NC(C)C` (stereo not given) here?
Answer: The Papp was 11 ×10⁻⁶ cm/s.

Question: With `CO/N=C(\C(=O)N[C@@H]1C(=O)N2C(C(=O)O)=C(C[N+]3(C)CCCC3)CS[C@H]12)c1csc(N)n1` as the compound, how does the Papp read?
Answer: The Papp was < 1 ×10⁻⁶ cm/s.

Question: With `CC1(C)SCCN(S(=O)(=O)c2ccc(Oc3ccncc3)cc2)[C@H]1C(=O)NO` as the compound, how does the Papp read?
Answer: Its Papp is 9 ×10⁻⁶ cm/s.

Question: With `O=C1/C(=C\c2ccccc2)C[C@@]2(O)[C@H]3Cc4ccc(O)c5c4[C@@]2(CCN3CC2CC2)[C@@H]1O5` as the compound, how does the Papp read?
Answer: The Papp was 158 ×10⁻⁶ cm/s.

Question: Which Papp does the source give for `O=C(CCCN1CCC(O)(c2ccc(Cl)cc2)CC1)c1ccc(F)cc1` here?
Answer: The Papp was 217 ×10⁻⁶ cm/s.

Question: For `CCNC(=O)c1noc(-c2cc(C(C)C)c(O)cc2O)c1-c1ccc(CN2CCOCC2)cc1`, which Papp is on record?
Answer: Its Papp is 117 ×10⁻⁶ cm/s.

Question: For `O=C1Nc2ccc(C(=O)c3ccco3)cc2/C1=C/c1cc(Cl)c(O)c(Cl)c1`, which Papp is on record?
Answer: The Papp was 38 ×10⁻⁶ cm/s.

Question: Which Papp does the source give for `Cc1[nH]c2ccccc2c1C1(O)C(=O)N(Cc2ccccc2)c2ccc(Cl)cc21` (stereo not given) here?
Answer: The Papp was > 300 ×10⁻⁶ cm/s.
